Patent publication US11332438B2, “Creatine prodrugs, compositions and methods of use thereof” (Ultragenyx Pharmaceutical Inc., priority 2017, dated 2022)

Assay: Chemical stability in simulated intestinal fluid (SIF) without pancreatin
Format: physicochemical
Conditions: Table 2A, 50 μM prodrug
Method: Chemical stability of creatine prodrugs in phosphate buffered saline (PBS), simulated intestinal fluid (SIF) without pancreatin, simulated gastric fluid (SGF) without pepsin were determined by LC-UV, LC-CAD, LC-UV-CAD or LC-MS/MS as appropriate. Creatine prodrugs of the present disclosure (50 μM) were incubated at 37° C. according to described protocols and prodrug levels were compared between t=0, t=15, t=60, and t=120 mins by peak area ratio to determine the percentage remained at t=120 mins (2 h).
Protocol for PBS, SIF and SGF stability for screening:
Prodrugs (50 μM) were incubated in PBS, FaSSIF (Biorelevant) or FaSSGF (Biorelevant) at 37° C.

Chemical Stability SIF, no enzyme % T0 at 2 hours at 37 °C.: 17%
Compound: Cl.[2H]C([2H])([2H])N(CC(=O)OCC)C(=N)NC(=O)CCCCCCCCCC [Compound 8]
